# Key:
# Lck = Lck (Homo sapiens (Human), UniProt P06239); assay: KINOMEscan dissociation constant, Lck; format: binding
# Description: (§1) Kinase enzyme binding activities of compounds disclosed herein may be determined using a proprietary assay which measures active site-directed competition binding to an immobilized ligand (Fabian, M. A. et al., Nature Biotechnol., 2005, 23:329-336). These assays may be conducted by DiscoverX (formerly Ambit; San Diego, Calif.). The percentage inhibition produced by incubation with a test compound may be calculated relative to the non-inhibited control.
# [1] = Pharmacokinetics after intravenous administration to rats; format: in vivo; details: intravenous 0.25 mg/kg
# Description: Studies were conducted by Sai Life Sciences (Hinjewadi, Pune, India) to investigate the plasma pharmacokinetics and total colon tissue distribution of Compound I. In particular, pharmacokinetic studies were carried out in: • male C57BL/6 mice, following a single oral administration; and • male Wistar rats following a single intravenous or oral administration.
# p38 MAPKα = p38 MAPKα (Homo sapiens (Human), UniProt Q16539); assay: Phosphoflow assay, cellular p38 MAPKα inhibition in Jurkat cells; format: cell-based; details: H2O2 stimulated, read-out: IC50 Values, phospho-p38 MAPKα (converted)
# Sequence of p38 MAPKα (Q16539 whole entry, looked up): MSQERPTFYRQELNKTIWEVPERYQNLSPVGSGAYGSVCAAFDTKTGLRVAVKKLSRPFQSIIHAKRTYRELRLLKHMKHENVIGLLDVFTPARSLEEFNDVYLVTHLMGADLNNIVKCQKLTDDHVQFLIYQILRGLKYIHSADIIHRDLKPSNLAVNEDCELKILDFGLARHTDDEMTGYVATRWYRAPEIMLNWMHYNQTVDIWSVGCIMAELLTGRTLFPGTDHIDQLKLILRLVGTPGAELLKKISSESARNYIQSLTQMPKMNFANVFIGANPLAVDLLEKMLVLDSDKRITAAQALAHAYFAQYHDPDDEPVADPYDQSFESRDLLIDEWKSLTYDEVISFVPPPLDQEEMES
# Description: Jurkat T cells were cultured in starve medium (RPMI 1640+5% FBS) for 24 h prior to the experiment. Cells were harvested and resuspended at 10×10^6 cells/mL in starve medium and then plated into round-bottomed 96 well plates at 1×10^6 cells/well. Serial dilutions of test compound were added (1% final DMSO concentration) for 2 h prior to stimulation. Following pre-incubation with compound, cells were stimulated with H2O2 (0.05% final) for 5 min. The reaction was stopped by centrifugation at 2000 rpm (3 min, 4° C.), then the supernatant was removed and 100 μL of cold fix/perm solution (BD Fix/Perm kit #554714) added. Plates were incubated for 20 min at 4° C. before centrifugation and washing with supplied 1× wash medium (BD Fix/Perm kit #554714). Cells were stained for either phospho-p38α (T180/182), supplied by Cell Signalling Technology (9211s), or phospho-Lck (Y394), supplied by R&D (MAB7500). Antibodies were diluted to 5 μg/mL (R&D) or 1:200 (Cell Signalling Technology) in wash medium, before being incubated 1 h at 4° C. in the dark. Following 3 repeat washes with ice cold wash buffer, secondary antibody (anti-rabbit-FITC #F1362 or anti-mouse-FITC #F2883, both from Sigma) was added at a dilution of 1:1000 and incubated for 1 h at 4° C. in the dark. […] Cells were analysed by flow cytometry using BD Accuri C6.
# Syk = Syk (Homo sapiens (Human), UniProt P43405); assay: KINOMEscan dissociation constant, Syk; format: binding
# Description: as §1
# [2] = biological target: human ether a go-go (hERG) channel (Homo sapiens (Human), UniProt Q12809); assay: hERG inhibition, IonWorks patch clamp electrophysiology; format: cell-based
# Sequence of human ether a go-go (hERG) channel (Q12809 whole entry): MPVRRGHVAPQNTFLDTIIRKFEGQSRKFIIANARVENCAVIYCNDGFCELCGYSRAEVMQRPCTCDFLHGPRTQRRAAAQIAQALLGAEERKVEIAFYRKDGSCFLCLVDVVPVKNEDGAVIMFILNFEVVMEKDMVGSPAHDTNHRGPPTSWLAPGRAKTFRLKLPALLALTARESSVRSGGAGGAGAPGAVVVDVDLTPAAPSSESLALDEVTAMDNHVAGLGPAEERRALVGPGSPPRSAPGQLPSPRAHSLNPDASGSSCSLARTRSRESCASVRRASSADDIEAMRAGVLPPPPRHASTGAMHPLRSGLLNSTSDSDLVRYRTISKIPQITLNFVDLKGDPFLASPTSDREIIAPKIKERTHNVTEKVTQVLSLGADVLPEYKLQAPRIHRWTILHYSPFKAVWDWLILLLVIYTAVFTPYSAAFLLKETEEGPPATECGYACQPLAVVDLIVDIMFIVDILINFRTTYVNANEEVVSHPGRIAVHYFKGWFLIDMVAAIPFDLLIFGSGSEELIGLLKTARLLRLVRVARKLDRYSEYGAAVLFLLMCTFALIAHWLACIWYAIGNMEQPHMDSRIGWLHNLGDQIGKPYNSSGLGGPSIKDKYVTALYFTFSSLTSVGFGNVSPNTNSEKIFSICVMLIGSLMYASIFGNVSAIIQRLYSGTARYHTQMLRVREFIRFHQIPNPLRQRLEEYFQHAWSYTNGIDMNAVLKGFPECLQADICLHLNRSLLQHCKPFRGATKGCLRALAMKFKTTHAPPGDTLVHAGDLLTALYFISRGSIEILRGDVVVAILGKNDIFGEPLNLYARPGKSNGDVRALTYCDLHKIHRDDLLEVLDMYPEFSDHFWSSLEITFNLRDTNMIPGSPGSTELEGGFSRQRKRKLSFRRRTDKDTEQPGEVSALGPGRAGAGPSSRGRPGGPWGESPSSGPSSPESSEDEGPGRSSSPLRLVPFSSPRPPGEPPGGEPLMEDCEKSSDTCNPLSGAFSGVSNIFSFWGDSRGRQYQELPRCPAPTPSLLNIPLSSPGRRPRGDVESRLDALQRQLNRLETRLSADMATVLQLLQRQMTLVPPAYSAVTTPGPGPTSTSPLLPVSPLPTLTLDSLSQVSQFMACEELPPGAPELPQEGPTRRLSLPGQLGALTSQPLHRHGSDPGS
# Description: (§2) Compound I was tested for inhibition of the human ether a go-go (hERG) channel using IonWorks™ patch clamp electrophysiology at Essen Bioscience (Welwyn Garden City, England).
# hERG = hERG (Homo sapiens (Human), UniProt Q12809); assay: as above; format: cell-based; details: human, 3 μM
# Sequence of hERG (Q12809 whole entry): as above
# Description: as §2
# Sequence of Lck (P06239 whole entry): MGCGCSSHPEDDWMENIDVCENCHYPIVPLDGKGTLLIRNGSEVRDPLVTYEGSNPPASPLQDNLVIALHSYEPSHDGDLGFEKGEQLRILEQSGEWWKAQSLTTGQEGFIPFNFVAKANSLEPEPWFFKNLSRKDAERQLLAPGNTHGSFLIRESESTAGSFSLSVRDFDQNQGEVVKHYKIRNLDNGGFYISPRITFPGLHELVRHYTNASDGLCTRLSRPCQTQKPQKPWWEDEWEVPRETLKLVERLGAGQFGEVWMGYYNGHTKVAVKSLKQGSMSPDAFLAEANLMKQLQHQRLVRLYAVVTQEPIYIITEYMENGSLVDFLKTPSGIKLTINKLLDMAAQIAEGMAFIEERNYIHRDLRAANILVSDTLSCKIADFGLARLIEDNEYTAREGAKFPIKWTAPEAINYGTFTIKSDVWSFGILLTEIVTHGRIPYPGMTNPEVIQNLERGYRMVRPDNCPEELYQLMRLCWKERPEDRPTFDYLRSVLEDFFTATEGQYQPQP
structure (smiles),measurement,setting,value
"C#Cc1cc(Nc2nccc(Oc3ccc(NC(=O)Nc4cc(C(C)(C)C)cc(NS(C)(=O)=O)c4OC)c4ccccc34)n2)cc(C(=O)NCCOCCOCCOC)c1 [Compound I, 3-((4-((4-(3-(5-(tert-Butyl)-2-methoxy-3-(methylsulfonamido)phenyl)ureido)naphthalen-1-yl)oxy)pyrimidin-2-yl)amino)-5-ethynyl-N-(2-(2-(2-methoxyethoxy)ethoxy)ethyl)benzamide]",Kd,Lck,4.1 nM
same,CI,[1],4.8 mL/min/kg
same,AUC(0-inf),"[1]; male, Wistar, rat, plasma",871 ng·h/mL
same,AUC(0-t),"[1]; male, Wistar, rat, plasma",869 ng·h/mL
same,C0,"[1]; male, Wistar, rat, plasma",6540 ng/mL
same,half-life,"[1]; male, Wistar, rat, plasma",6 min
same,Vd,"[1]; male, Wistar, rat, plasma, read-out: Vss",0.03 L/kg
same,IC50,p38 MAPKα,23.8 nM
same,Kd,Syk,21 nM
same,IC50,[2],> 3 µM
same,inhibition at 3 µM,hERG,-12 ± 4%

# From patent US8927563B2, “Kinase inhibitor” (Respivert Limited, priority 2013, dated 2015)
